Measured values as given in the NIST ThermoML archive (doi:10.1016/j.tca.2017.04.014).

Experiments:
[1] = 298.15 K, 101.3 kPa, Crystal
[2] = molar heat capacity at constant pressure; conditions: 101.33 kPa, Crystal, DSC
[3] = xn = mol fraction of the nth substance listed; conditions: 298.15 K, 101.3 kPa, Crystal, x2 = 0
[4] = molar heat capacity at constant pressure; xn = mol fraction of the nth substance listed; conditions: 101.3 kPa, Crystal, DSC, x2 = 0

[O-2].[O-2].[Th+4] [thorium dioxide]
Conditions	mass density [kg/m3]	molar heat capacity at constant pressure [J/K/mol]
[1], From pellet mass and volume	9390	–
[1], X-ray diffraction	10000	–
[1], buoyancy	9430	–
[2], 300 K	–	62.1
[2], 310 K	–	61.8
[2], 320 K	–	62.8
[2], 330 K	–	63.5
[2], 340 K	–	64.2
[2], 350 K	–	65.1
[2], 360 K	–	65.6
[2], 370 K	–	65.9
[2], 380 K	–	66.8
[2], 390 K	–	67.3
[2], 400 K	–	67.7
[2], 410 K	–	68
[2], 420 K	–	68.4
[2], 430 K	–	68.6
[2], 440 K	–	68.9
[2], 450 K	–	69.6
[2], 460 K	–	69.8
[2], 470 K	–	70.1
[2], 480 K	–	70.2
[2], 490 K	–	70.5
[2], 500 K	–	70.7
[2], 510 K	–	70.9
[2], 520 K	–	71.2
[2], 530 K	–	71.4
[2], 540 K	–	71.7
[2], 550 K	–	71.9
[2], 560 K	–	72
[2], 570 K	–	72.1
[2], 580 K	–	72.3
[2], 590 K	–	72.5
[2], 600 K	–	72.5
[2], 610 K	–	72.5
[2], 620 K	–	73
[2], 630 K	–	73
[2], 640 K	–	73.3
[2], 650 K	–	73.6
[2], 660 K	–	73.5
[2], 670 K	–	73.6
[2], 680 K	–	73.6
[2], 690 K	–	73.4
[2], 700 K	–	73.8
[2], 710 K	–	74.5
[2], 720 K	–	74.5
[2], 730 K	–	74.6
[2], 739 K	–	74.7
[2], 750 K	–	74.6
[2], 760 K	–	75
[2], 770 K	–	75.3
[2], 780 K	–	75.3
[2], 790 K	–	75.3
[2], 800 K	–	75.7
[2], 810 K	–	75.7
[2], 820 K	–	75.7
[2], 830 K	–	75.9
[2], 840 K	–	76
[2], 850 K	–	76.1
[2], 860 K	–	76.4
[2], 870 K	–	76.1

[O-2].[O-2].[U+4] [uranium dioxide]
Conditions	mass density [kg/m3]	molar heat capacity at constant pressure [J/K/mol]
[1], From pellet mass and volume	10570	–
[1], X-ray diffraction	10970	–
[1], buoyancy	10660	–
[2], 300 K	–	64.6
[2], 310 K	–	66.2
[2], 320 K	–	66.8
[2], 330 K	–	67.7
[2], 340 K	–	68.7
[2], 350 K	–	69.1
[2], 360 K	–	69.5
[2], 370 K	–	70.5
[2], 380 K	–	71.2
[2], 390 K	–	71.2
[2], 400 K	–	72.5
[2], 410 K	–	72.8
[2], 420 K	–	73.4
[2], 430 K	–	73.5
[2], 440 K	–	74.4
[2], 450 K	–	74.6
[2], 460 K	–	74.9
[2], 470 K	–	75.5
[2], 480 K	–	76.2
[2], 490 K	–	76.4
[2], 500 K	–	76.5
[2], 510 K	–	76.6
[2], 520 K	–	76.7
[2], 530 K	–	77.1
[2], 540 K	–	77
[2], 550 K	–	77.1
[2], 560 K	–	77.3
[2], 570 K	–	77.9
[2], 580 K	–	78.2
[2], 590 K	–	79
[2], 600 K	–	79.1
[2], 610 K	–	79.7
[2], 620 K	–	79.4
[2], 630 K	–	79.6
[2], 640 K	–	80.3
[2], 650 K	–	79.8
[2], 660 K	–	80.5
[2], 670 K	–	80.5
[2], 680 K	–	80.7
[2], 690 K	–	81.1
[2], 700 K	–	80.4
[2], 710 K	–	80.8
[2], 720 K	–	81.2
[2], 730 K	–	81.7
[2], 740 K	–	82.2
[2], 750 K	–	82.9
[2], 760 K	–	82.4
[2], 770 K	–	82.7
[2], 780 K	–	83.4
[2], 790 K	–	83.9
[2], 800 K	–	83.7
[2], 810 K	–	84.1
[2], 820 K	–	83.8
[2], 830 K	–	84.2
[2], 840 K	–	84.1
[2], 850 K	–	83.7
[2], 860 K	–	84.1
[2], 870 K	–	84.5

[O-2].[O-2].[U+4] [uranium dioxide] + [O-2].[O-2].[Th+4]
Conditions	mass density [kg/m3]	molar heat capacity at constant pressure [J/K/mol]
[3], From pellet mass and volume	10570	–
[3], X-ray diffraction	10970	–
[3], buoyancy	10660	–
[4], 300 K	–	64.6
[4], 310 K	–	66.2
[4], 320 K	–	66.8
[4], 330 K	–	67.7
[4], 340 K	–	68.7
[4], 350 K	–	69.1
[4], 360 K	–	69.5
[4], 370 K	–	70.5
[4], 380 K	–	71.2
[4], 390 K	–	71.2
[4], 400 K	–	72.5
[4], 410 K	–	72.8
[4], 420 K	–	73.4
[4], 430 K	–	73.5
[4], 440 K	–	74.4
[4], 450 K	–	74.6
[4], 460 K	–	74.9
[4], 470 K	–	75.5
[4], 480 K	–	76.2
[4], 490 K	–	76.4
[4], 500 K	–	76.5
[4], 510 K	–	76.6
[4], 520 K	–	76.7
[4], 530 K	–	77.1
[4], 540 K	–	77
[4], 550 K	–	77.1
[4], 560 K	–	77.3
[4], 570 K	–	77.9
[4], 580 K	–	78.2
[4], 590 K	–	79
[4], 600 K	–	79.1
[4], 610 K	–	79.7
[4], 620 K	–	79.4
[4], 630 K	–	79.6
[4], 640 K	–	80.3
[4], 650 K	–	79.8
[4], 660 K	–	80.5
[4], 670 K	–	80.5
[4], 680 K	–	80.7
[4], 690 K	–	81.1
[4], 700 K	–	80.4
[4], 710 K	–	80.8
[4], 720 K	–	81.2
[4], 730 K	–	81.7
[4], 740 K	–	82.2
[4], 750 K	–	82.9
[4], 760 K	–	82.4
[4], 770 K	–	82.7
[4], 780 K	–	83.4
[4], 790 K	–	83.9
[4], 800 K	–	83.7
[4], 810 K	–	84.1
[4], 820 K	–	83.8
[4], 830 K	–	84.2
[4], 840 K	–	84.1
[4], 850 K	–	83.7
[4], 860 K	–	84.1
[4], 870 K	–	84.5
